The values below come from article PMC9798004 (Frontiers in Psychiatry, 2022).

“Also recorded” adds a separate entry of the source. Read-outs that look alike come from different tables or passages of the source.

One data set has as its target MC5R (Homo sapiens, UniProt P33032). The experiment in a line: PathHunter β-arrestin assay. The class given is cell-based. The conditions noted are these: antagonist mode vs EC80 of control agonist, 10-point curve.
In another data set the target is CHRM3 (Homo sapiens, UniProt P20309). The class given is cell-based.
Another data set has as its target T1, FPR1 (Homo sapiens, UniProt P21462).
T1 sequence (P21462 1-350): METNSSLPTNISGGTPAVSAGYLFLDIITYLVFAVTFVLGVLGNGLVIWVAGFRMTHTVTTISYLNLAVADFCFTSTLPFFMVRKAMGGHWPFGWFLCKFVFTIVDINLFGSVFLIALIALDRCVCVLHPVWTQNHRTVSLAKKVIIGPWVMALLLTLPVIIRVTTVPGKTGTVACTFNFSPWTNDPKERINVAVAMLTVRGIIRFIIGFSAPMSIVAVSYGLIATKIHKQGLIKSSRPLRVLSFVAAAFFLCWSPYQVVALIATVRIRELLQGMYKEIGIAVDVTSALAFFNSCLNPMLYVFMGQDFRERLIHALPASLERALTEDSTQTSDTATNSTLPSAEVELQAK
The experiment in a line: PathHunter β-arrestin assay. The format is cell-based. The conditions noted are these: antagonist mode vs EC80 of control agonist, 10-point curve.

Another data set deals with DRD5 (Homo sapiens, UniProt P21918). The experiment in a line: PathHunter β-arrestin assay. The format is cell-based. The conditions noted are these: antagonist mode vs EC80 of control agonist, 10-point curve.
The target of a further data set is T2, CNR1 (CB1) (Homo sapiens, UniProt P21554).
T2 construct: host or cells: CHO
Description: PathHunter β-arrestin assay. The format is cell-based. The conditions noted are these: agonist mode.

For a further data set, the target named is T3, CCR9 (Homo sapiens, UniProt P51686).
T3 construct: purchased Eurofins DiscoverX (PathHunter gpcrMAX)
T3 sequence (P51686 1-369): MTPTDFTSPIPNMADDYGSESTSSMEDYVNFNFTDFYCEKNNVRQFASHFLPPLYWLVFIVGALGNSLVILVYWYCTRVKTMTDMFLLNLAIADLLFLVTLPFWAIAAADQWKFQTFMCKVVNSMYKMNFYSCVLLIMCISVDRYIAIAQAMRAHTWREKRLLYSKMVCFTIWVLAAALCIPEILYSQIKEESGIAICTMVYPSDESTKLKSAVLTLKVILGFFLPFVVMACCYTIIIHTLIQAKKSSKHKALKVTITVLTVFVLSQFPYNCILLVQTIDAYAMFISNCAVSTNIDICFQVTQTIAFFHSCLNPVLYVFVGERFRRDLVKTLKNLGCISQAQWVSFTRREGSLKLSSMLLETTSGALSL
The experiment in a line: PathHunter β-arrestin assay. The format is cell-based. The conditions noted are these: antagonist mode, up to 30 μM.

For another data set, the target named is T4, HCRTR1 (Homo sapiens, UniProt O43613).
T4 sequence (O43613 1-425): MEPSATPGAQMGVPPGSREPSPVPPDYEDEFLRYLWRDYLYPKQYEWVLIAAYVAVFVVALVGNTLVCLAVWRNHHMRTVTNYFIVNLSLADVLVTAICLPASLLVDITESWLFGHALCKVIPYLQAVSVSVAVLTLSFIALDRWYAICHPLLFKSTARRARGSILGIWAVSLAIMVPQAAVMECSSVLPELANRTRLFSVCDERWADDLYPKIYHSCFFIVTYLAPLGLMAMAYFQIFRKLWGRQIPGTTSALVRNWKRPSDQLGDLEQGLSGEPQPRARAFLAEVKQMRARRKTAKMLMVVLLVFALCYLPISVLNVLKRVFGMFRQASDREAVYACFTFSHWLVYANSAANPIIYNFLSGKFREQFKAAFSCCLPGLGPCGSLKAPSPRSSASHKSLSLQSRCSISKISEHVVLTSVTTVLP
Description: PathHunter β-arrestin assay. The class given is cell-based.

In a further data set the target is UTR2 (Homo sapiens, UniProt Q9UKP6). The experiment in a line: PathHunter β-arrestin assay. The format is cell-based. The conditions noted are these: antagonist mode, up to 30 μM.
For data set [1], the system named is GPCR off-targets with >5-fold difference in S/N and CoV (n = 36). Description: Follow-up concentration-response β-arrestin assays, panel of hits. The class given is cell-based. The protocol: Follow up experiments were prioritized based on the difference between S/N and CoV. Targets with a >5-fold difference between S/N and CoV were investigated for their potential contribution to the AMB-FUBINACA toxidrome with 10-point concentration-response curves generated in technical replicate (range 1.5–30 μM) using the EC80 of the relevant agonist, where applicable in antagonist mode. Simultaneous agonist and antagonist curves were run in parallel to ensure reliability of the assay (see Supplementary Table 2), with both RC50 and signal to background aligning with historical averages, and Z' >0.5. RC50 was estimated using a four-parameter fit (CBIS Data Analysis Suite, ChemInnovation, San Diego, CA) on normalized data.

The target in the next data set is MC4R (Homo sapiens, UniProt P32245). The experiment in a line: PathHunter β-arrestin assay. The format is cell-based. The conditions noted are these: antagonist mode vs EC80 of control agonist, 10-point curve.
The target of the next data set is DRD2L (Homo sapiens, UniProt P14416). The experiment in a line: PathHunter β-arrestin assay. The class given is cell-based. The conditions noted are these: antagonist mode, up to 30 μM.
The next data set has as its target T5, GALR2 (Homo sapiens, UniProt O43603).
T5 construct: purchased Eurofins DiscoverX (PathHunter gpcrMAX)
The experiment in a line: PathHunter β-arrestin assay. The class given is cell-based. The conditions noted are these: antagonist mode, up to 30 μM.

Another data set deals with 168 GPCRs. The experiment in a line: gpcrMAX panel 30 μM single-point β-arrestin screen (agonist and antagonist mode). The class given is cell-based. The conditions noted are these: antagonist mode. As to the method:
Activity, or a “hit,” was defined as >30% in agonist mode, >35% in antagonist mode, or >50% in the orphan screen (agonist mode). Where these criteria were met, signal-to-noise (S/N) and coefficient of variation (CoV) were also calculated, defined as: […]
Agonist mode Antagonist modeS/N Compound mean/Baseline mean+(Baseline SD×3) EC80 mean/Compound-(Compound SD× 3)CoV Baseline mean/Compound mean-(Compound SD× 3) Compound mean/EC80 mean-(EC80 SD × 3)
Hits were verified to have S/N>1 and a CoV <1. Thresholds and subsequent validation were guided by Eurofins. Descriptive data (means ± S.E.M) was generated in Graphpad Prism (version 9.2.0, San Diego, CA).

On the set-up of data set [2]: method as in PMID 35210552. The conditions noted are these: rats; cited from earlier work.

T2 sequence (P21554 whole entry): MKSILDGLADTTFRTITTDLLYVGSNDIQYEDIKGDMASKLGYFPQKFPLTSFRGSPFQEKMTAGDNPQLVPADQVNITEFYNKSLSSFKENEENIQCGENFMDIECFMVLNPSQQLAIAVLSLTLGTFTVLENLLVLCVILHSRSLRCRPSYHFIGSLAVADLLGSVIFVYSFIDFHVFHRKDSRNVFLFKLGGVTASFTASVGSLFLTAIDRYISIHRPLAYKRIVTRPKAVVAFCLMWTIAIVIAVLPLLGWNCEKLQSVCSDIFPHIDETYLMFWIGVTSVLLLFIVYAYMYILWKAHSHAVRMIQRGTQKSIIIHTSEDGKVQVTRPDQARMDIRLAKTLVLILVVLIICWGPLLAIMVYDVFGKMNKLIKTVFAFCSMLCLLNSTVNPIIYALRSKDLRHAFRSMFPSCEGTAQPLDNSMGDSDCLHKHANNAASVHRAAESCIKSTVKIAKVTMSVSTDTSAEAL
Sequence of DRD2L (P14416 whole entry): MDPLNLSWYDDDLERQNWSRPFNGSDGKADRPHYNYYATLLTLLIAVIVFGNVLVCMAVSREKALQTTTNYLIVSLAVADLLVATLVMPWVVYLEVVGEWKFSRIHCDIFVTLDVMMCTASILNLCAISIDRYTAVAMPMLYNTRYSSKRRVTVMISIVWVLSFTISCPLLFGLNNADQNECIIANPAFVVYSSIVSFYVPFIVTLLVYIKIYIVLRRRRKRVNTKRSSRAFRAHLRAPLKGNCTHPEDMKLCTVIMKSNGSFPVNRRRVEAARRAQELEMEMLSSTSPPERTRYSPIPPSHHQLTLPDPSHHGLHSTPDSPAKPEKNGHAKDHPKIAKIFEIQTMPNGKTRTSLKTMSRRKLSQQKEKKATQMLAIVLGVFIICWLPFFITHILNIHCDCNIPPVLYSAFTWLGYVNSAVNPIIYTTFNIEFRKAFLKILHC
Sequence of UTR2 (Q9UKP6 whole entry): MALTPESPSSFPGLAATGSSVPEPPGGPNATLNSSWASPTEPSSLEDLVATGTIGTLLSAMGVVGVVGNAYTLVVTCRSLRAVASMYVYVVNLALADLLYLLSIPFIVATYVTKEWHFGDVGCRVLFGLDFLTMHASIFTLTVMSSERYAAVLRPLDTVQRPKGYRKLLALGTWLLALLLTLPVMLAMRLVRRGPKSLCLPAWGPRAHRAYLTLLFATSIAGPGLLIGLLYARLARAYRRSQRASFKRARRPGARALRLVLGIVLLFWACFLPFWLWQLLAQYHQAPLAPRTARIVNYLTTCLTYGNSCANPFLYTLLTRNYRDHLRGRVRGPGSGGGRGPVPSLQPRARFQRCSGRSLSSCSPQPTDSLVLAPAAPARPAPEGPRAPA
Sequence of MC4R (P32245 whole entry): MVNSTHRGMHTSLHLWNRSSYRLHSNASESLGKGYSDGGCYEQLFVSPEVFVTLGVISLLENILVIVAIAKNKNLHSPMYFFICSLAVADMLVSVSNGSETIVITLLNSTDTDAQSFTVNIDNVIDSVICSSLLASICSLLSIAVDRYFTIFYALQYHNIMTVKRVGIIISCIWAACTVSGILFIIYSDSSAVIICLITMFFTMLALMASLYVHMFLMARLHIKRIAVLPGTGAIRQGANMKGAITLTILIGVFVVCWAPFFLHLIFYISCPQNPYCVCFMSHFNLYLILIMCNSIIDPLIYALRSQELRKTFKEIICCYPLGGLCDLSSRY
T5 sequence (O43603 whole entry): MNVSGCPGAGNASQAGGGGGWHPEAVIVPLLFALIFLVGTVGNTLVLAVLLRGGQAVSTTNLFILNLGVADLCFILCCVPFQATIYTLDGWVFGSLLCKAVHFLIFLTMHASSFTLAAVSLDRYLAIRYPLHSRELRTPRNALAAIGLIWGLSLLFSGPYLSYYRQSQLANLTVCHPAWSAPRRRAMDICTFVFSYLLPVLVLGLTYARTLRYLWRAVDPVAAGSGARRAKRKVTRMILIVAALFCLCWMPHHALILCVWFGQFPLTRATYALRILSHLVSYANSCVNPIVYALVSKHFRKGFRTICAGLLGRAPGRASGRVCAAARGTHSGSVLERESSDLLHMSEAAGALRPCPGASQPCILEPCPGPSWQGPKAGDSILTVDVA
Sequence of DRD5 (P21918 whole entry): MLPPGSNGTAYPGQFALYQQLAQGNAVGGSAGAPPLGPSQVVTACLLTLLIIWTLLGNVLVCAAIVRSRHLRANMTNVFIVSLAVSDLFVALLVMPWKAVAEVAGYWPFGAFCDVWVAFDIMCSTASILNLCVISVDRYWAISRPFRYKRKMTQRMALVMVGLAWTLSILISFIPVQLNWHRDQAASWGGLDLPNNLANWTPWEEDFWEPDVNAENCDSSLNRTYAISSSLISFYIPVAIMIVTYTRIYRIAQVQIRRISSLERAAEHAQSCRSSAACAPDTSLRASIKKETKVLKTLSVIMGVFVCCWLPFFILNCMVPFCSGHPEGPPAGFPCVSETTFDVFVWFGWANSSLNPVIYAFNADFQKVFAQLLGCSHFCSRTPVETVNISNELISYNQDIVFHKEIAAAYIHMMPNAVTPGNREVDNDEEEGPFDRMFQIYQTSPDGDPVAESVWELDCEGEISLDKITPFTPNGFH
Sequence of CHRM3 (P20309 whole entry): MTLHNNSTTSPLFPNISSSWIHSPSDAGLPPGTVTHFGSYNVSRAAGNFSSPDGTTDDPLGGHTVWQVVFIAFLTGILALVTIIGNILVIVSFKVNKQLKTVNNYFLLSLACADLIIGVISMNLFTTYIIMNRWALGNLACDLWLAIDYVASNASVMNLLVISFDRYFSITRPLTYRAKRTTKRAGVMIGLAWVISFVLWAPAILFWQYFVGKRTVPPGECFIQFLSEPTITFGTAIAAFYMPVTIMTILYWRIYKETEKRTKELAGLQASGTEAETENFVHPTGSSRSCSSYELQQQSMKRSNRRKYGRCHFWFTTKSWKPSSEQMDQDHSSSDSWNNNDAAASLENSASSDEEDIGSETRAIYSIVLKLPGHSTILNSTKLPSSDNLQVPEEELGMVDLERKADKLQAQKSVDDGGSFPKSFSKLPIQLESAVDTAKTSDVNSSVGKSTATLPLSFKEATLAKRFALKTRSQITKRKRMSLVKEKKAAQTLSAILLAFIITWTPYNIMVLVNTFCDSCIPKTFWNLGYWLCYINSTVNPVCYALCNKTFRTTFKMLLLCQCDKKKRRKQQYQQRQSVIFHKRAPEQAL
Sequence of MC5R (P33032 whole entry): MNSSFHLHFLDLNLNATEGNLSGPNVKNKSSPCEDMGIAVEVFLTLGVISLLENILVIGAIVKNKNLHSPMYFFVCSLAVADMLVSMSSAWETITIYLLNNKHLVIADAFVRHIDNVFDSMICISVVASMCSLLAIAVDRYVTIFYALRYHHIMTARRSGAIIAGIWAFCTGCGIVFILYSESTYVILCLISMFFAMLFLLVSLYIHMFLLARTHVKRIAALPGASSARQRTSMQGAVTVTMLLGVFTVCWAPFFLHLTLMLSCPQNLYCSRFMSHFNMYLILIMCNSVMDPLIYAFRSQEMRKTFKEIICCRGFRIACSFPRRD

As for `COC(=O)[C@@H](NC(=O)c1nn(Cc2ccc(F)cc2)c2ccccc12)C(C)C` [AMB-FUBINACA], the IC50 was 14.1 µM on MC5R; 6.96 µM against CHRM3; 7.91 µM at FPR1; 10.7 µM at DRD5; 8.59 µM at HCRTR1 (antagonist mode vs EC80 of control agonist, 10-point curve); more than 1 µM in data set [1] (antagonist mode (Figure 4), read-out: potencies at targets other than CB1). Besides, the IC50 in [1] (antagonist mode vs EC80 agonist, concentrations up to 30 μM, read-out: IC50 at 12 receptors (Figure 5)) was more than 30 µM; on MC4R, 5.85 µM. Further, the “response of CB1-expressing cells at high concentration” value on CNR1 (CB1) (30 μM, response decreased above 1 μM) was “very little activity remaining at 30 μM”. Besides, the EC50 on CNR1 (CB1) (data above 1 μM excluded from curve fitting) was 0.0426 µM. Moreover, the “inhibitory activity in concentration-response” value against CCR9 was “Activity was only observed at the highest concentration (30 μM); also recorded: only inhibited at the highest 30 μM concentration”; on UTR2 it was “did not produce any clear activity”; against DRD2L, “Activity was only observed at the highest concentration (30 μM); also recorded: only inhibited at the highest 30 μM concentration”; on GALR2, “did not produce any clear activity”. This compound had a maximum inhibition on HCRTR1 (antagonist mode, concentration-response up to 30 μM) of 73.00%. Besides, in the data set on 168 GPCRs, the “mean inhibition 30 μM, targets with >5-fold difference in S/N and CoV (n = 36)” value was found to be 97.00 ± 2.54%. The “mean inhibition of targets inhibited above 35% threshold” value in the data set on 168 GPCRs was determined as 81.16%. For the same compound, the “number of off-targets inhibited (>35%)” value in the data set with 168 GPCRs is given as “inhibited the greatest number of targets”. In addition, in data set [2], the “brain concentration relative to plasma” value is ~ 5 fold.
